In patent US11746116B2, “Antibiotic resistance breakers” (KING'S COLLEGE LONDON, priority 2017, dated 2023):
≈ marks a conversion by molar mass, not a printed value.

Tests used:
[1] = system: KP13368; assay: MIC, microdilution broth method; type: cell-based; details: KP13368, in µg/mL
[2] = system: M6; assay: MIC, microdilution broth method; type: cell-based; details: M6, in µg/mL
[3] = system: AYE; assay: MIC, microdilution broth method; type: cell-based, Acinetobacter baumannii; details: AYE, in µg/mL
[4] = system: Ab17978; assay: MIC, microdilution broth method; type: cell-based; details: Ab17978, in µg/mL
[5] = system: PA01; assay: MIC, microdilution broth method; type: cell-based, Pseudomonas aeruginosa; details: PA01, in µg/mL
[6] = system: PA13437; assay: MIC, microdilution broth method; type: cell-based; details: PA13437
[7] = system: MSSA9144; assay: MIC, microdilution broth method; type: cell-based, Staphylococcus aureus; details: MSSA9144; in µg/mL
[8] = system: EMRSA15; assay: MIC, microdilution broth method; type: cell-based, Staphylococcus aureus; details: EMRSA15; in µg/mL
[9] = system: EMRSA16; assay: MIC, microdilution broth method; type: cell-based, Staphylococcus aureus; details: EMRSA16; in µg/mL
[10] = system: VSE775; assay: MIC, microdilution broth method; type: cell-based, Enterococcus faecalis; details: VSE775; in µg/mL
[11] = system: VRE12201; assay: MIC, microdilution broth method; type: cell-based, Enterococcus faecalis; details: VRE12201; in µg/mL
[12] = system: VRE12204; assay: MIC, microdilution broth method; type: cell-based, Enterococcus faecium; details: VRE12204; in µg/mL
[13] = system: SE1; type: cell-based, S. epidermidis
[14] = system: SA1; assay: MIC, extended Gram-positive panel; type: cell-based, S. aureus
[15] = system: SA2; assay: MIC, extended Gram-positive panel; type: cell-based, S. aureus
[16] = system: SA3; type: cell-based, S. aureus
[17] = system: SH1; assay: MIC, extended Gram-positive panel; type: cell-based, S. haemolyticus
[18] = system: SA4; assay: MIC, extended Gram-positive panel; type: cell-based, S. aureus
[19] = system: SA5; type: cell-based, S. aureus
[20] = system: SA6; assay: MIC, extended Gram-positive panel; type: cell-based, S. aureus
[21] = system: EF1; assay: MIC, extended Gram-positive panel; type: cell-based, E.faecalis
[22] = system: EF2; assay: MIC, extended Gram-positive panel; type: cell-based, E.faecium
[23] = system: SA7; assay: MIC, extended Gram-positive panel; type: cell-based, S. aureus
[24] = system: SA8; assay: MIC, extended Gram-positive panel; type: cell-based, S. aureus
[25] = system: SA9; type: cell-based, S. aureus
[26] = system: SA10; assay: MIC, extended Gram-positive panel; type: cell-based, S. aureus
[27] = system: MSSA 9144 strain; assay: Reserpine (growth) assay for efflux; type: cell-based, Staphylococcus aureus; details: multidrug-resistant MSSA 9144 strain; compound 0.25×MIC, reserpine 10 μg/mL
[28] = system: EMRSA 15 strain; assay: Reserpine (growth) assay for efflux; type: cell-based, Staphylococcus aureus; details: multidrug-resistant EMRSA 15 strain; compound 0.25×MIC, reserpine 10 μg/mL
[29] = system: W1; assay: MIC, A. baumannii extended panel; type: cell-based
[30] = system: OXA23.1; assay: MIC, A. baumannii extended panel; type: cell-based; details: A. baumannii OXA23.1
[31] = system: UKA7; assay: MIC, A. baumannii extended panel; type: cell-based
[32] = system: UKA12; assay: MIC, A. baumannii extended panel; type: cell-based
[33] = system: UKA16; assay: MIC, A. baumannii extended panel; type: cell-based
[34] = system: UKA13; assay: MIC, A. baumannii extended panel; type: cell-based
[35] = system: 13302; assay: MIC, A. baumannii extended panel; type: cell-based; details: A. baumannii 13302
[36] = system: UKA1; assay: MIC, A. baumannii extended panel; type: cell-based
[37] = system: A601; assay: MIC, A. baumannii extended panel; type: cell-based
[38] = system: 12156; assay: MIC, A. baumannii extended panel; type: cell-based; details: A. baumannii 12156

With `CCn1cc(C(=O)O)c(=O)c2cc(F)c(N3CCN(Cc4cccc5ccccc45)CC3)cc21` [ML-77-021] the MIC ([1]; +PMBN) was 4-8, the MIC ([1]; Normal (no PMBN)) was over 32 and the MIC ([2]; +PMBN) was 1-4. For the same molecule, the MIC ([2]; Normal (no PMBN)) was 32, the MIC ([3]; +PMBN) was over 32 and the MIC ([3]; Normal (no PMBN)) was over 32. For the same molecule, the MIC ([4]; +PMBN) was 0.5, the MIC ([4]; Normal (no PMBN)) was 32 and the MIC ([5]; +PMBN) was 0.06-0.25. It also gave an MIC ([5]; Normal (no PMBN)) of over 32, an MIC ([6]; +PMBN) of over 32 µg/mL and an MIC ([6]; Normal (no PMBN)) of over 32 µg/mL. It also gave an MIC [7] of 1, an MIC [8] of 2 and an MIC [9] of 2. The MIC [10] was 2, the MIC [11] was 4 and the MIC [12] was 2. The Fold decrease [13] was 1-4 fold, the MIC ([13]; in µg/mL) was 1 and the MIC ([14]; S. aureus SA1, gyrA, 84:S => L, grlA, 80:S => F) was 4 µg/mL (≈ 8.7 µM). For the same molecule, the Fold decrease ([14]; SA1, MIC of parent (CIP or NOR) versus ARB-linked derivative) was at least 32 fold, the MIC ([15]; S. aureus SA2) was 1 µg/mL (≈ 2.18 µM) and the Fold decrease ([15]; SA2, MIC of parent (CIP or NOR) versus ARB-linked derivative) was 8-64 fold. The Fold decrease [16] was 32 fold, the MIC [16] was 2 µg/mL (≈ 4.35 µM) and the MIC ([17]; S. haemolyticus SH1) was 4 µg/mL (≈ 8.7 µM). The Fold decrease ([17]; SH1, MIC of parent (CIP or NOR) versus ARB-linked derivative) was 32 fold, the MIC ([18]; S. aureus SA4, gyrA, 84:S => L, grlA, 80:S => F) was 2 µg/mL (≈ 4.35 µM) and the Fold decrease ([18]; SA4, MIC of parent (CIP or NOR) versus ARB-linked derivative) was 32 fold. For the same molecule, the Fold decrease [19] was at least 64 fold, the MIC [19] was 2 µg/mL (≈ 4.35 µM) and the MIC ([20]; S. aureus SA6, gyrA, 84:S => V, grlA, 80:S => F) was 2 µg/mL (≈ 4.35 µM). For the same molecule, the Fold decrease ([20]; SA6, MIC of parent (CIP or NOR) versus ARB-linked derivative) was at least 64 fold, the MIC ([21]; E.faecalis EF1) was 4 µg/mL (≈ 8.7 µM) and the Fold decrease ([21]; EF1, MIC of parent (CIP or NOR) versus ARB-linked derivative) was at least 32 fold. For the same molecule, the MIC ([22]; E.faecium EF2, in µg/mL) was 2-4, the Fold decrease ([22]; EF2, MIC of parent (CIP or NOR) versus ARB-linked derivative) was at least 32 fold and the MIC ([23]; S. aureus SA7, gyrA, 84:S => L, grlA, 80:S => F) was 2 µg/mL (≈ 4.35 µM). It also gave a Fold decrease ([23]; SA7, MIC of parent (CIP or NOR) versus ARB-linked derivative) of at least 64 fold, an MIC ([24]; S. aureus SA8, gyrA, 84:S => L, grlA, 80:S => F) of 2 µg/mL (≈ 4.35 µM) and a Fold decrease ([24]; SA8, MIC of parent (CIP or NOR) versus ARB-linked derivative) of 64 fold. It also gave an MIC ([25]; S. aureus SA9, gyrA, 84:S => L, grlA, 80:S => F) of 2 µg/mL (≈ 4.35 µM), a Fold decrease ([25]; SA9, MIC of parent (CIP or NOR) versus ARB-linked derivative) of at least 64 fold and an MIC ([26]; S. aureus SA10, gyrA, 84:S => L, grlA, 80:S => F) of 2 µg/mL (≈ 4.35 µM). For the same molecule, the Fold decrease ([26]; SA10, MIC of parent (CIP or NOR) versus ARB-linked derivative) was 64 fold, the “efflux by the strain (reserpine assay)” value [27] was “not effluxed” and the “efflux by the strain (reserpine assay)” value [28] was “not effluxed”.

In the case of `Cl.O=C(O)c1cn(C2CC2)c2cc(N3CCN(Cc4ccc(CO)cc4)CC3)c(F)cc2c1=O` [ML-77-158], the MIC [29] is reported as 32 µg/mL, the MIC [30] is reported as 64 µg/mL and the MIC [31] is reported as 64 µg/mL. The MIC [32] was 32 µg/mL, the MIC [33] was 32 µg/mL and the MIC [34] was 32 µg/mL. The MIC [35] was 64 µg/mL, the MIC [36] was 16 µg/mL and the MIC [37] was 8 µg/mL. For the same molecule, the MIC [38] was 0.5 µg/mL.

`CCn1cc(C(=O)O)c(=O)c2cc(F)c(N3CCNCC3)cc21` [Norfloxacin, norfloxacin, reference compound] showed an MIC ([1]; Normal (no PMBN)) of 4, an MIC ([2]; Normal (no PMBN)) of 0.25 and an MIC ([4]; Normal (no PMBN)) of 4. For the same molecule, the MIC ([5]; Normal (no PMBN)) was 2, the MIC [7] was 2 and the MIC [10] was 8. The MIC [11] was 4, the MIC [12] was 4 and the “efflux by the strain (reserpine assay)” value [27] was “effluxed”. The “efflux by the strain (reserpine assay)” value [28] was “effluxed”.
